Assay results taken from ChEMBL document CHEMBL1649219, “Imidocarb dipropionate clears persistent Babesia caballi infection with elimination of transmission potential” (Antimicrob Agents Chemother, 2009).
The source made the active and inactive calls.

Key:
Format in all cases: functional, organism-based
Set-up in all cases: dose 4 mg/kg
Babesia caballi [1] = assay: Antiparasitic activity against Babesia caballi infected in horse assessed as reduction in parasite level at 4 mg/kg, im dosed 4 times at 72 hrs intervals administered 70 days postinfection and measured 5 days post last dose by nested PCR
Babesia caballi [2] = assay: Antiparasitic activity against Babesia caballi infected in horse assessed as reduction in parasite specific antibodies at 4 mg/kg, im dosed 4 times at 72 hrs intervals administered 70 days postinfection measured 56 days post dose by complement fixation assay
Babesia caballi [3] = assay: Antiparasitic activity against Babesia caballi infected in horse assessed as reduction in parasite specific antibodies at 4 mg/kg, im dosed 4 times at 72 hrs intervals administered 70 days postinfection measured 222 days post dose by immunoblot
Babesia caballi [4] = assay: Antiparasitic activity against Babesia caballi infected in horse assessed as reduction in parasite level at 4 mg/kg, im dosed 4 times at 72 hrs intervals administered 70 days postinfection and measured 5 days post last dose by quantitative PCR
Babesia caballi [5] = assay: Antiparasitic activity against Babesia caballi receiving blood from 4 times 4 mg/kg, im compound treated donor horse infected with Babesia caballi assessed as reduction in parasite level measured after 100 days post-parasite transmission by nested PCR
Babesia caballi [6] = assay: Antiparasitic activity against Babesia caballi receiving ticks from 4 times 4 mg/kg, im compound treated donor horse infected with Babesia caballi assessed as reduction in parasite specific antibodies measured after 100 days post-parasite transmission by C-ELISA
Babesia caballi [7] = assay: Antiparasitic activity against Babesia caballi receiving blood from 4 times 4 mg/kg, im compound treated donor horse infected with Babesia caballi assessed as reduction in parasite specific antibodies measured after 100 days post-parasite transmission by C-ELISA
Babesia caballi [8] = assay: Antiparasitic activity against Babesia caballi receiving ticks from 4 times 4 mg/kg, im compound treated donor horse infected with Babesia caballi assessed as reduction in parasite level measured after 100 days post-parasite transmission by nested PCR
Babesia caballi [9] = assay: Antiparasitic activity against Babesia caballi infected in horse assessed as reduction in parasite specific antibodies at 4 mg/kg, im dosed 4 times at 72 hrs intervals administered 70 days postinfection measured 201 days post dose by C-ELISA

Measured: Activity

O=C(Nc1cccc(C2=NCCN2)c1)Nc1cccc(C2=NCCN2)c1
active: all assays above
